Assay results published in patent US11690828B2, “Treatment of CNS diseases with sGC stimulators” (Cyclerion Therapeutics, Inc., priority 2016, dated 2023).

Experiments:
sGC = test: cGMP neuronal cell-based assay; conditions: rat primary hippocampal neurons; 30 μM DETA-NO; 50% of high control (10 μM Compound Y); read-out: sGC-neuron Abs EC50
Procedure: Rat primary neurons were isolated from fetuses of 18-day pregnant Sprague-Dawley females. The fetuses were collected in Hanks' balanced salt solution (HBSS) and brains were rapidly removed. The cerebral hippocampi were isolated and mechanically fragmented. Further tissue digestion was performed with 0.25% (wt/vol) trypsin solution in HBSS without Ca2+ and Mg2+ for 15 min at 37° C. After trypsination, cells were washed and resuspended in neurobasal medium supplemented with 0.5 mM L-glutamine, 12.5 uM glutamic acid, 2% B-27 and 100 U/mL penicillin, and 100 μg/mL streptomycin. Cells were plated at a density of 4×10^4 cells/well in a poly-D-lysine coated 384-well flat clear-bottom plate (Corning Cat No 354662). Cells were incubated 6-7 days at 37° C. in a humidified chamber with 5% CO2. Media was removed and cells were washed 1× with HBSS containing Ca2+ and Mg2+, and replaced with 40 uL HBSS containing 0.5 mM IBMX, and incubated for 15 minutes at 37° C. 10 uL of a 5× stock of test compounds with diethylenetriamine NONOate (DETA-NO) was added. Final concentration of DETA-NO was 30 μM. Cells were incubated for 20 min at 37° C. Medium was removed, 50 uL of ice-cold 10% acetic acid was added, and incubated for 60 minutes at 4° C. Following centrifugation at 4° C. for 5 minutes at 1000×g to pellet cell debris, the supernatant was aspirated to a clean plate and the samples were analyzed for cGMP content. cGMP concentrations were determined from each sample using LC-MS/MS.
Data were normalized to a high control using the following equation: 100*(Sample−Low Control)/(High Control−Low Control), where the low control is the average of 15 samples treated with 1% DMSO, and the high control is the average of 15 samples treated with 10 μM of the known sGC stimulator Compound Y (depicted in Example 2). Data were fit using a 4-parameter fit (log(agonist) vs. response—variable slope) using GraphPad Prism Software v.5. n=2 for all compounds. […]

[1] = Rat cerebrospinal fluid (CSF) pharmacokinetic properties; assay type: in vivo; conditions: male, Sprague-Dawley; for concentration at 1 h: CSF, PO 10 mg/kg in PEG400, 1 h post-dosing, read-out: CSF Conc (nM @ 1 h); for Kp uu at 1 h: PO 10 mg/kg, unbound CSF / unbound plasma
Procedure: PK in rats was determined following oral dosing. For the oral (PO) experiments, a group of 6 male Sprague-Dawley rats with an indwelling catheter placed in the cisterna magna were used. The PO group was dosed with 3 or 10 mg/kg of a compound formulated as a solution in PEG400. PO doses were administered by oral gavage and delivered to the stomach using a syringe and gavage tube. Following oral dosage administration, the gavage tube was flushed with approximately 0.5 mL of water to ensure complete delivery of the full dose.
Plasma and CSF samples were collected as follows: samples of CSF and blood were collected at 1 hour and 2 hours post-dosing. CSF samples (0.05 mL) were collected through the intracisternal catheter. Blood samples (0.25 mL) were collected through retro-orbital sampling. These samples were kept on ice until processed for plasma. Blood samples were centrifuged at 3200 rpm for 5 minutes at approximately 5° C. within 1 hour of collection. Plasma was directly transferred to a 96-well plate tube (0.125 mL). Plug caps were placed on the tubes and the tubes frozen at approximately −70° C. and stored until analysis.
Plasma was collected and analyzed for the presence of compound.
The compound in question and the internal standard were extracted from plasma and CSF by precipitation. Samples were analyzed using liquid chromatography (LC) with tandem mass spectrometric detection (MS/MS) using electrospray ionization. The standard curve range was from 1 to 1000 ng/mL.
Kp,uu is defined as the concentration ratio of unbound drug in CSF to unbound drug in plasma. Unbound drug in plasma (or free plasma concentration) is calculated by multiplying the total plasma concentration by the unbound fraction as determined by plasma protein binding. The CSF concentration is then divided by the free plasma concentration to determine the Kp,uu. (See e.g., Di et al., J. Med. Chem., 56, 2-12 (2013)).

male Long Evans rats = test: Novel Object Recognition (NOR) test, MK-801-induced memory deficit; assay type: in vivo, rat
rats [2] = test: Carrageenan - paw pressure test; assay type: in vivo, rat; conditions: internal reference Indomethacin 30 mg/kg p.o.
Procedure: (§1) Paw Pressure Test. Static mechanical hyperalgesia is measured. This test requires the application of an increasing pressure on the hind paws between a flat surface and a blunt pointer. To evaluate the analgesic action of a compound, one hind paw of the animal was inflamed by an injection or injured by ligation, while the other hind paw was not injured or inflamed. The apparatus exerted a steadily increasing force on the hind paws. The reaction threshold was determined as the pressure (g) required to elicit paw withdrawal and/or vocalization. The animals were gently handled by the experimenter and static mechanical hyperalgesia were assessed two times for both hind paws.
Carrageenan. Induction: Three hours before assessment of the nociceptive threshold using the paw pressure test 100 μL of a 2% carrageenan suspension was injected into the plantar aspect of the right hind paw. The Paw Pressure test was then conducted as described above.
(§2) Testing: 120 minutes after treatment. N=4/model/test. Results are expressed for each group as a percentage of activity calculated from the mean value of the vehicle-treated animals and compared to naïve animals, control paw, or cut-off value, depending on the test.

rats [3] = test: Kaolin - gait score; assay type: in vivo, rat; conditions: internal reference Indomethacin 10 mg/kg p.o.
Procedure: Kaolin. Induction: In rats, unilateral arthritis was induced by an intra-articular injection of a 10% kaolin suspension into the knee joint of the right hind paw under gas anesthesia (3.5% isoflurane/3 L/min). Gait score: The gait score will be evaluated 3 h 30 min after kaolin administration by:
2: intermittent raising of the paw
as §2

rats [4] = test: Bennett model - paw pressure test; assay type: in vivo, rat; conditions: internal reference Morphine 3 mg/kg s.c.
Procedure: as §1
Bennett Model. Peripheral mononeuropathy was induced by loose ligation of the sciatic nerve in anesthetized rats (Xylazine 10 mg/kg i.p., ketamine 60 mg/kg i.p.) on D−14. Briefly, the common sciatic nerve was exposed at the level of the middle of the thigh by blunt dissection through the biceps femoris. Proximal to the sciatic trifurcation, four ligatures were loosely tied around it with about 1-mm spacing. […]
Testing: 120 minutes after treatment. […] Results are expressed for each group as a percentage of activity calculated from the mean value of the vehicle-treated animals and compared to naïve animals, control paw, or cut-off value, depending on the test.

Healthy rats [5] = test: Healthy rats - tail flick test; assay type: in vivo, rat; conditions: internal reference Morphine 4 mg/kg s.c.
Procedure: Tail Flick Test. A radiant heat was applied on the tail. When the rat felt discomfort, it reacted by a sudden tail movement (tail flick) which automatically stopped the stimulation and the timer for the measurement by the animal reaction time or nociceptive reaction latency (period from the beginning of the stimulation until detection of the response of the animal). A cut-off was previously fixed at 10 sec in order to prevent tissue damage.
as §2

Healthy rats [6] = test: Healthy rats - paw pressure test; assay type: in vivo, rat; conditions: internal reference Morphine 4 mg/kg s.c.
Procedure: as §1, §2

rats [7] = test: Brennan model - electronic Von Frey test; assay type: in vivo, rat; conditions: internal reference Morphine 4 mg/kg s.c.
Text: Brennan Model. Surgery: Surgery was done under gas anesthesia (2.5% isoflurane/3 L/min). For all rats, the plantar aspect of the left hind paw was exposed and a 1 cm longitudinal incision was made using a surgical blade, through the skin and fascia of the plantar aspect of the foot, starting 0.5 cm from the proximal edge of the heel and extending toward the toes. The plantaris muscle was elevated and incised longitudinally whereas the insertions remained intact. After hemostasis with gentle pressure, the skin was stitched up with two sutures. After surgery, animals recovered in their cages.
Electronic Von Frey Test. Tactile allodynia was assessed using the electronic Von Frey test 24 h after surgery. The test requires the application of an increasing pressure onto the plantar aspect of the hind paws. The apparatus exerted a steady force on the hind paws. Reaction thresholds were determined as the pressure (g) required to elicit paw withdrawal. Each reaction threshold measurement was repeated three times for both hind paws with intervals of approximately 2 to 3 mins.
as §2

rats [8] = test: Formalin test - score; assay type: in vivo, rat; conditions: internal reference Morphine 4 mg/kg s.c.
Procedure: Formalin Test. 2.5% formalin solution was injected by subplantar route into the right hind paw. Scoring of pain behavior was performed in rats for 36 minutes every 3 minutes according to the following scores:
0=normal behavior of the injected hind limb to support the body
1=slight touching of the injected paw on the floor to lightly support or not support the body
2=total withdrawal of the injected paw
3=licking, biting or shaking of the injected paw.
as §2

Fc1ccccc1Cc1nc(-c2nc(C(F)(F)F)n[nH]2)n2ccccc12 [Compound I-3]
EC50 (sGC): ≤ 100 nM

Cc1ncc(Cc2nc(-c3nc(C(F)(F)F)n[nH]3)n3ccccc23)cn1 [Compound I-4]
concentration at 1 h [1]: 180 nM
Kp uu at 1 h [1]: 0.96

Fc1ccccc1Cc1nc(-c2nc(C(F)(F)F)n[nH]2)c2cccnn12 [Compound I-6]
concentration at 1 h [1]: 0.78 nM
Kp uu at 1 h [1]: < 0.01

COc1ccc2c3c1O[C@H]1C[C@@H](O)C=C[C@@]31CCN(C)C2 [Galantamine, reference compound]
Recognition Index, Mean (0 to 3 minute time bin) (male Long Evans rats; Galantamine 1 mg/kg IP + MK-801 0.1 mg/kg IP): 73.33%

COc1ccc2c(c1)c(CC(=O)O)c(C)n2C(=O)c1ccc(Cl)cc1 [Indomethacin, reference compound]
% of activity vs. vehicle, carrageenan paw pressure test (rats [2]): 100%
% of activity vs. vehicle, kaolin gait score (rats [3]): 58%

C[C@]12N[C@H](Cc3ccccc31)c1ccccc12 [MK-801, MK-801 (Dizocilpine), reference compound]
Effect on recognition memory, 0-3 minute time range (male Long Evans rats; MK-801 0.1 mg/kg): strong memory deficit
Effect on recognition memory, 0-5 minute time range (male Long Evans rats; MK-801 0.1 mg/kg): strong memory deficit
Recognition Index, Mean (0 to 3 minute time bin) (male Long Evans rats; Vehicle + MK-801 0.1 mg/kg IP, Vehicle + Saline control 73.78): 56.92%

CN1CC[C@]23c4c5ccc(O)c4O[C@H]2[C@@H](O)C=C[C@H]3[C@H]1C5 [Morphine, reference compound]
% of activity vs. vehicle, Bennett model paw pressure test (rats [4]): 191%
% of activity vs. vehicle, healthy rats tail flick test (Healthy rats [5]): 66%
% of activity vs. vehicle, healthy rats paw pressure test (Healthy rats [6]): 69%
% of activity vs. vehicle, Brennan model electronic Von Frey test (rats [7]): 88%
% of activity vs. vehicle, formalin test score (early phase) (rats [8]): 57%
% of activity vs. vehicle, formalin test score (late phase) (rats [8]): 38%
